The target in one experiment is T1, human CB2 receptors (Homo sapiens, UniProt P34972).
T1 construct: expressed in transfected cells; host or cells: CHO cells
T1 sequence (P34972 whole entry): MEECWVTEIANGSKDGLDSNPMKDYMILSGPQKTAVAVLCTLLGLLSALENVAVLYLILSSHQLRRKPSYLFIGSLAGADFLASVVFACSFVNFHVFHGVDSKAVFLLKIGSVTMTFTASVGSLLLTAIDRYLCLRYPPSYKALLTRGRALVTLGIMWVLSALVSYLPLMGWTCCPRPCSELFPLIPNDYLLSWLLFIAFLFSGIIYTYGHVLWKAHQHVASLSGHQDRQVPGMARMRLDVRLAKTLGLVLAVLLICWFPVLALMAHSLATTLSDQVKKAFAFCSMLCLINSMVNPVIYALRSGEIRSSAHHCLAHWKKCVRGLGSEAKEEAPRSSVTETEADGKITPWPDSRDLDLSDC
The experiment is described as follows: cAMP assay.
Conditions: not given
In kind it is cell-based. As for the experimental part: CHO cells expressing human CB1 or CB2 receptors are seeded 17-24 hours prior to the experiment 50.000 cells per well in a black 96 well plate with flat clear bottom (Corning Costar #3904) in DMEM (Invitrogen No. 31331), 1×HT supplement, with 10% fetal calf serum and incubated at 5% CO2 and 37° C. in a humidified incubator. The growth medium was exchanged with Krebs Ringer Bicarbonate buffer with 1 mM IBMX and incubated at 30° C. for 30 min. Compounds were added to a final assay volume of 100 μl and incubated for 30 min at 30° C. Using the cAMP-Nano-TRF detection kit the assay (Roche Diagnostics) was stopped by the addition of 50 μl lysis reagent (Tris, NaCl, 1.5% Triton X100, 2.5% NP40, 10% NaN3) and 50 μl detection solutions ([…] mAb Alexa700-cAMP 1:[…] Ruthenium-2-AHA-cAMP) and shaken for 2 h at room temperature. The time-resolved energy transfer is measured by a TRF reader (Evotec Technologies GmbH), equipped with a ND:YAG laser as excitation source. The plate is measured twice with the excitation at 355 nm and at the emission with a delay of 100 ns and a gate of 100 ns, total exposure time 10 s at 730 (bandwidth 30 nm) or 645 nm (bandwidth 75 nm), respectively. The FRET signal is calculated as follows: FRET=T730-Alexa730-P(T645-B645) with P=Ru730-B730/Ru645-B645, where T730 is the test well measured at 730 nM, T645 is the test well measured at 645 nm, B730 and B645 are the buffer controls at 730 nm and 645 nm, respectively. cAMP content is determined from the function of a standard curve spanning from […] to 0.13 nM cAMP.
EC50 values were determined using Activity Base analysis (ID Business Solution, Limited).
(In general: cAMP levels reflect the balance of adenylyl cyclase and phosphodiesterase activity.)
A word on the EC50: it is the concentration at which the effect is half-maximal. `COC(=O)C(C)(C)NC(=O)c1ccc(-c2ccc(Cl)cc2)c(SC)n1` [Example 1, Methyl 2-[[5-(4-chlorophenyl)-6-methylsulfanylpyridine-2-carbonyl]amino]-2-methylpropanoate] had an EC50 of 344 nM.
The same measure, in the same setting: next, `COC(=O)C(C)(C)NC(=O)c1ccc(-c2ccc(Cl)cc2)c(OCC2CC2)n1` [Example 2, Methyl 2-[[5-(4-chlorophenyl)-6-(cyclopropylmethoxy)pyridine-2-carbonyl]amino]-2-methylpropanoate]: 48.2 nM; `CC(C)(NC(=O)c1ccc(-c2ccc(Cl)cc2)c(OCC2CC2)n1)c1ncco1` [Example 3, 5-(4-Chlorophenyl)-6-(cyclopropylmethoxy)-N-[2-(1,3-oxazol-2-yl)propan-2-yl]pyridine-2-carboxamide]: 144 nM; `Cc1nc(C(C)(C)NC(=O)c2ccc(-c3ccc(Cl)cc3)c(OCC3CC3)n2)no1` [Example 4, 5-(4-Chlorophenyl)-6-(cyclopropylmethoxy)-N-[2-(5-methyl-1,2,4-oxadiazol-3-yl)propan-2-yl]pyridine-2-carboxamide]: 232 nM.
On the same count and under the same terms, next, `CC(C)(NC(=O)c1ccc(-c2ccccc2)c(OCC2CC2)n1)c1ncco1` [Example 5, 6-(Cyclopropylmethoxy)-N-[2-(1,3-oxazol-2-yl)propan-2-yl]-5-phenylpyridine-2-carboxamide]: 34.2 nM.
Still for that read-out and setting: in the case of `CCC(CC)(NC(=O)c1ccc(-c2ccccc2)c(OCC2CC2)n1)C(=O)NC` [Example 6, 6-(Cyclopropylmethoxy)-N-[3-(methylcarbamoyl)pentan-3-yl]-5-phenylpyridine-2-carboxamide] it was 831 nM; in that of `CCC(CC)(NC(=O)c1ccc(OCC2CC2)c(-c2cccc(Cl)c2)n1)C(=O)NC` [Example 7, 6-(3-Chlorophenyl)-5-(cyclopropylmethoxy)-N-[3-(methylcarbamoyl)pentan-3-yl]pyridine-2-carboxamide], 51.3 nM; in that of `COC1CN(c2ccc(C(=O)NC(C)(C)c3noc(C)n3)nc2OCC2CC2)C1` [Example 8, 6-(Cyclopropylmethoxy)-5-(3-methoxyazetidin-1-yl)-N-[2-(5-methyl-1,2,4-oxadiazol-3-yl)propan-2-yl]pyridine-2-carboxamide], 86.6 nM.
Compound `Cc1nc(C(C)(C)NC(=O)c2ccc(OCC3CC3)c(-c3cccc(Cl)c3)n2)no1` [Example 9, 6-(3-Chlorophenyl)-5-(cyclopropylmethoxy)-N-[2-(5-methyl-1,2,4-oxadiazol-3-yl)propan-2-yl]pyridine-2-carboxamide] showed a 50% effective concentration (EC50) of 42.4 nM.
The same measure, in the same setting: in the case of `COC1CN(c2ccc(C(=O)N[C@@H](CC3CC3)C(N)=O)nc2OCC2CC2)C1` [Example 10, N-[(2S)-1-amino-3-cyclopropyl-1-oxopropan-2-yl]-6-(cyclopropylmethoxy)-5-(3-methoxyazetidin-1-yl)pyridine-2-carboxamide] it was 63.4 nM.
Turning to `CC(C)(NC(=O)c1ccc(N2CC3(COC3)C2)c(OCC2CC2)n1)c1nccs1` [Example 11, 6-(Cyclopropylmethoxy)-5-(2-oxa-6-azaspiro[3.3]heptan-6-yl)-N-[2-(1,3-thiazol-2-yl)propan-2-yl]pyridine-2-carboxamide], a half-maximal effect (EC50) was put at 135 nM.
Same read-out and setting: next, `CC(C)C[C@H](NC(=O)c1ccc(N2CC3(COC3)C2)c(OCC2CC2)n1)C(N)=O` [Example 12, N-[(2S)-1-amino-4-methyl-1-oxopentan-2-yl]-6-(cyclopropylmethoxy)-5-(2-oxa-6-azaspiro[3.3]heptan-6-yl)pyridine-2-carboxamide]: 177 nM; `CC(C)(NC(=O)c1ccc(OCC2CC2)c(-c2cccc(Cl)c2)n1)c1nccs1` [Example 13, 6-(3-Chlorophenyl)-5-(cyclopropylmethoxy)-N-[2-(1,3-thiazol-2-yl)propan-2-yl]pyridine-2-carboxamide]: 23.1 nM.
Same read-out and setting: in the case of `NC(=O)[C@H](CC1CC1)NC(=O)c1ccc(OCC2CC2)c(OCC2CC2)n1` [Example 14, N-[(2S)-1-Amino-3-cyclopropyl-1-oxopropan-2-yl]-5,6-bis(cyclopropylmethoxy)pyridine-2-carboxamide] it was 95 nM.
Same read-out and setting: in the case of `COC1CN(c2ccc(C(=O)N[C@@H](CC(C)C)C(N)=O)nc2OCC2CC2)C1` [Example 15, N-[(2S)-1-Amino-4-methyl-1-oxopentan-2-yl]-6-(cyclopropylmethoxy)-5-(3-methoxyazetidin-1-yl)pyridine-2-carboxamide] it was 21.9 nM; in that of `CSCC[C@H](NC(=O)c1ccc(OCC2CC2)c(Cl)n1)C(N)=O` [Example 16, N-[(2S)-1-Amino-4-methylsulfanyl-1-oxobutan-2-yl]-6-chloro-5-(cyclopropylmethoxy)pyridine-2-carboxamide], 973 nM.
For the compound `CCC(CC)(NC(=O)c1ccc(OCC2CC2)c(Cl)n1)C(=O)NC` [Example 17, 6-Chloro-5-(cyclopropylmethoxy)-N-[3-(methylcarbamoyl)pentan-3-yl]pyridine-2-carboxamide], a half-maximal response (EC50) required 800 nM.
Compound `Cc1nc([C@H](CC2CC2)NC(=O)c2ccc(OCC3CC3)c(Cl)n2)no1` [Example 18, 6-Chloro-5-(cyclopropylmethoxy)-N-[(1S)-2-cyclopropyl-1-(5-methyl-1,2,4-oxadiazol-3-yl)ethyl]pyridine-2-carboxamide] returned a concentration giving a half-maximal response (EC50) of 646 nM.
Same read-out and setting: next, `CCOC(=O)C(CC)(CC)NC(=O)c1ccc(N2CC(OC)C2)c(OCC2CC2)n1` [Example 20, Ethyl 2-[[6-(cyclopropylmethoxy)-5-(3-methoxyazetidin-1-yl)pyridine-2-carbonyl]amino]-2-ethylbutanoate]: 6.5 nM.
On the same count and under the same terms, in the case of `CCC(CC)(NC(=O)c1ccc(N2CC(OC)C2)c(OCC2CC2)n1)C(=O)NCCF` [Example 25, 6-(Cyclopropylmethoxy)-N-[3-(2-fluoroethylcarbamoyl)pentan-3-yl]-5-(3-methoxyazetidin-1-yl)pyridine-2-carboxamide] it was 334 nM.

Still in this experiment, the particulars now being: CHO cells expressing human CB2 receptors; read-out: cAMP assay human CB2 EC50.
For `COC1CN(c2ccc(C(=O)NC(C)(C)Cc3nnc(-c4ccc(F)cc4)o3)nc2OCC2CC2)C1` [Example 21, 6-(Cyclopropylmethoxy)-N-[1-[5-(4-fluorophenyl)-1,3,4-oxadiazol-2-yl]-2-methylpropan-2-yl]-5-(3-methoxyazetidin-1-yl)pyridine-2-carboxamide], the EC50 is 853 nM.
Still for that read-out and setting: next, `COC1CN(c2ccc(C(=O)NC3(CC(N)=O)COC3)nc2OCC2CC2)C1` [Example 22, N-[3-(2-Amino-2-oxoethyl)oxetan-3-yl]-6-(cyclopropylmethoxy)-5-(3-methoxyazetidin-1-yl)pyridine-2-carboxamide]: 67 nM.
On the same count and under the same terms, in the case of `CCC(CC)(NC(=O)c1ccc(N2CC(OC)C2)c(OCC2CC2)n1)C(=O)NC` [Example 23, 6-(Cyclopropylmethoxy)-5-(3-methoxyazetidin-1-yl)-N-[3-(methylcarbamoyl)pentan-3-yl]pyridine-2-carboxamide] it was 47 nM; in that of `COC1CN(c2ccc(C(=O)NCC3(O)CCCCC3)nc2OCC2CC2)C1` [Example 24, 6-(Cyclopropylmethoxy)-N-[(1-hydroxycyclohexyl)methyl]-5-(3-methoxyazetidin-1-yl)pyridine-2-carboxamide], 1290 nM.

(Values after patent US20160376237A1, “NOVEL PYRIDINE DERIVATIVES” (Hoffmann-La Roche Inc., priority 2014, published 2016).)
